Article PMC3138190 (Bioorganic & medicinal chemistry, 2011)

How the values were obtained:
[1] = system: hFPGS, from CCRF-CEM cells; details: at concentrations up to 1045 μM; cited from earlier work
FPGS = details: addition of only one additional glutamic acid; cited from earlier work
human TS = human TS (Homo sapiens, UniProt P04818); assay: Thymidylate synthase; format: biochemical
human DHFR = molecular target: T1, human DHFR (Homo sapiens, UniProt P00374); assay: Dihydrofolate reductase; format: biochemical; details: for activity against DHFR in words: DHFR from different sources
T1 sequence (P00374 1-187): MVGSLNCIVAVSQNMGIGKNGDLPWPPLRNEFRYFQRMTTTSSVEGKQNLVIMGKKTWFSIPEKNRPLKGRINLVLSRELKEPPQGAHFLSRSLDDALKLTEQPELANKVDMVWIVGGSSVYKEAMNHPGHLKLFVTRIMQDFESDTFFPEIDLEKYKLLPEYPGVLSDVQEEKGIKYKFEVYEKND

Chain of human TS (P04818 whole entry): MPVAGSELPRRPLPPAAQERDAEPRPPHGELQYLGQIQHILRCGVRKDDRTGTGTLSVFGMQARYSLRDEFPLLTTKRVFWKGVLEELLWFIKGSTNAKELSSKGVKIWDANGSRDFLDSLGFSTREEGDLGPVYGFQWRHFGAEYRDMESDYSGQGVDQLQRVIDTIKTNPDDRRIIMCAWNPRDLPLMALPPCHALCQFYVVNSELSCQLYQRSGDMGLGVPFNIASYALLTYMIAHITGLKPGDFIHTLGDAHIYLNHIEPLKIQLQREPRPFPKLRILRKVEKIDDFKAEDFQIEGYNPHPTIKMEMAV

Cc1[nH]c2nc(N)[nH]c(=O)c2c1Sc1ccc(C(=O)N[C@@H](CCC(=O)O)C(=O)O)cc1 [Compound 3, N-{4-[(2-amino-6-methyl-4-oxo-4,7-dihydro-3H-pyrrolo[2,3-d]pyrimidin-5-yl)thio]benzoyl}-L-glutamic acid]
substrate activity for hFPGS [1]: not a substrate

Cc1nc2ccc3ccc(CNc4ccc5c(c4)CN([C@@H](CCC(=O)O)C(=O)O)C5=O)cc3c2c(=O)[nH]1 [Compound 2]
substrate activity for FPGS (FPGS): excellent substrate

Cc1nc2sc3cccc(CNc4ccc5c(c4)CN([C@@H](CCC(=O)O)C(=O)O)C5=O)c3c2c(=O)[nH]1 [Compound 5, (2S)-2-(5-{[(2-methyl-4-oxo-3,4-dihydro[1]benzothieno[2,3-d]pyrimidin-5-yl)methyl]amino}-1-oxo-1,3-dihydro-2H-isoindol-2-yl)pentanedioic acid]
potency against hTS relative to 4 (less potent) (human TS; hTS, rigid versus flexible side chain, 2-methyl): 3 fold | activity against DHFR in words (human DHFR): inactive

Nc1nc2sc3cccc(CNc4ccc5c(c4)CN([C@@H](CCC(=O)O)C(=O)O)C5=O)c3c2c(=O)[nH]1 [Compound 7, (2S)-2-(5-{[(2-Amino-4-oxo-3,4-dihydro[1]benzothieno[2,3-d]pyrimidin-5-yl)methyl]amino}-1-oxo-1,3-dihydro-2H-isoindol-2-yl)pentanedioic acid]
potency against hTS relative to compound 1 (more potent) (human TS; hTS): 2 fold | potency relative to 6 (human TS; rigid versus flexible side chain, 2-amino): twice as potent | potency against hDHFR relative to MTX (less potent) (human DHFR): about 5 times

Nc1nc2sc3cccc(CNc4ccc(C(=O)N[C@@H](CCC(=O)O)C(=O)O)cc4)c3c2c(=O)[nH]1 [Compound 6, N-(4-{[(2-amino-4-oxo-3,4-dihydro[1]benzothieno[2,3-d]pyrimidin-5-yl)methyl]amino}benzoyl)-L-glutamic acid]
potency against hDHFR relative to MTX (less potent) (human DHFR): about 5 times

Cc1nc2sc3cccc(CNc4ccc(C(=O)N[C@@H](CCC(=O)O)C(=O)O)cc4)c3c2c(=O)[nH]1 [Compound 4, N-(4-{[(2-methyl-4-oxo-3,4-dihydro[1]benzothieno[2,3-d]pyrimidin-5-yl)methyl]amino}benzoyl)-L-glutamic acid]
activity against DHFR in words (human DHFR): inactive
